Reference: article PMC12030165, “Bioactivity of Synthesized Trifluoromethyl Thioxanthone Analogues” (Pharmaceuticals, 2025)

Tests used:
[1] = DPPH antioxidant activity assay
Procedure: To evaluate four synthesized compounds and Trolox (as a positive control), a 1 mg/mL concentration in methanol was first made from phenyl alcohol. The prepared solution was produced in concentrations of 1, 2, 3, 5, 7, 10, 20, 30, 50, and 80 µg/mL. The DPPH reagent was then diluted in 0.002% w/v methanol and combined in a […] ratio with the previously produced working concentrations. A blank solution of 100% methanol was used. All solutions were incubated at room temperature for 30 min in a dark environment. Their absorbance values were then determined using a UV-visible spectrophotometer set at a wavelength of 517 nm. The antioxidant capacity of each chemical compound fraction and Trolox were calculated using the following formula:% inhibition = ((Abs blank − Abs Sample)/Abs Blank) × 100 where:
Abs blank: Absorbance value of the control reaction containing all reagents except the synthesized compound.
Abs sample: The absorbance value of the synthesized compound [48].

[2] = molecular target: T1, porcine pancreatic α-amylase (Sus scrofa, UniProt P00690); test: α-Amylase inhibition assay (DNSA); format: biochemical
T1 construct: purchased MP Biochemicals (Illkirch, France)
T1 sequence (P00690 16-511): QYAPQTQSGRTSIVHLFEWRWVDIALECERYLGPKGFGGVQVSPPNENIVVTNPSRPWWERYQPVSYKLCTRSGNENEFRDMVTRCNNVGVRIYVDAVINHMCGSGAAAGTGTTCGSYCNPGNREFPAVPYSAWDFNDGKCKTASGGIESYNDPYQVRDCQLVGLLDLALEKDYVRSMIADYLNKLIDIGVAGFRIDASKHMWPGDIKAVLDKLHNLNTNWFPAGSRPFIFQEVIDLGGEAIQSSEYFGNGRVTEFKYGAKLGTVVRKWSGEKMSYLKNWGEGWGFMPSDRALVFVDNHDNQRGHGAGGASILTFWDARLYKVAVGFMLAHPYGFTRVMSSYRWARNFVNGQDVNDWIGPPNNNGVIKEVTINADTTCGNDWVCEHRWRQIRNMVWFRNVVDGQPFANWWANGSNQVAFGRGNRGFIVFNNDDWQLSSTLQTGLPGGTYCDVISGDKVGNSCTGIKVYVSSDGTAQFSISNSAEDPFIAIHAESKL
Procedure: Each product was initially dissolved in a few milliliters of 10% DMSO and then further diluted in a buffer solution (0.02 M Na2HPO4/NaH2PO4, 0.006 M NaCl, at pH 6.9) to prepare stock solutions at a concentration of 1000 µg/mL. From these stock solutions, further dilutions were made to obtain concentrations of 20, 50, and 70 µg/mL, using 10% DMSO as a diluent. A porcine pancreatic α-amylase enzyme solution was prepared at 2 units/mL concentration in 10% DMSO. For the working solutions, 0.2 mL of the enzyme solution was mixed with 0.2 mL of each product, and the mixture was incubated for 10 min at 30 °C. Following the incubation, 0.2 mL of a freshly prepared 1% starch aqueous solution was added to each working solution, which was then incubated for an additional 3 min. The reaction was halted by adding 0.2 mL of dinitrosalicylic acid (DNSA) yellow color reagent. Each working solution was diluted with 5 mL of distilled water and boiled for 10 min in a water bath at 90 °C. After cooling the mixture to room temperature, the absorbance was measured at 540 nm. The blank control was prepared similarly but replaced the product fraction with 0.2 mL of the buffer as mentioned above. Acarbose was used as the standard reference and was subjected to the same experimental procedures. The α-amylase inhibitory activity was calculated using the following equation [49]:% of α amylase inhibition = (AB − AE)/AB × 100%

[3] = molecular target: T2, COX-1 (Homo sapiens, UniProt P23219); test: COX (human) Inhibitor Screening Assay, COX-1; format: biochemical
T2 construct: purchased Cayman Chemicals 701230
Procedure: (§1) Our synthesized compounds’ COX-1 and COX-2 inhibitory activities were evaluated using the COX (human) Inhibitor Screening Assay Kit supplied by Cayman Chemicals (catalog no. 701230, Ann Arbor, MI, USA). The preparation of reagents and testing procedures were conducted according to the manufacturer’s recommendations. Two concentrations of the inhibitors (10 µM and 50 µM) were dissolved in a minimal amount of dimethyl sulfoxide (DMSO) and incubated with a mixture of COX-1 or COX-2 enzyme and heme in a diluted reaction buffer for 10 min at 37 °C. The reaction was initiated by adding 10 µL of arachidonic acid, followed by a two-minute incubation at 37 °C. The reaction was halted by adding 30 µL of stannous chloride solution to each reaction tube and incubating for 5 min at room temperature. The resulting PGF2α, produced by the COX reactions, was quantified using an enzyme-linked immunosorbent assay (ELISA). The 96-well plate was covered with plastic film and incubated for 18 h at room temperature on an orbital shaker. After incubation, the plate was rinsed five times with a wash buffer. Then, Ellman’s reagent (200 µL) was added, and the plate was incubated for approximately 60–90 min at room temperature until the absorbance of the blank well was in the range of 0.3–0.8 at 405 nm. The plate was read using a Unilab Microplate Reader 6000. The inhibitory percentage was calculated for each concentration tested against the control. The IC50 values were derived from the concentration-inhibition response curve, and the selectivity index (SI) was calculated by dividing the IC50 for COX-2 by the IC50 for COX-1 [52].

[4] = molecular target: T3, COX-2 (Homo sapiens, UniProt P35354); test: COX (human) Inhibitor Screening Assay, COX-2; format: biochemical; settings: for COX-2 Selectivity: ratio of COX-1 and COX-2 IC50
T3 construct: purchased Cayman Chemicals 701230
T3 sequence (P35354 18-604): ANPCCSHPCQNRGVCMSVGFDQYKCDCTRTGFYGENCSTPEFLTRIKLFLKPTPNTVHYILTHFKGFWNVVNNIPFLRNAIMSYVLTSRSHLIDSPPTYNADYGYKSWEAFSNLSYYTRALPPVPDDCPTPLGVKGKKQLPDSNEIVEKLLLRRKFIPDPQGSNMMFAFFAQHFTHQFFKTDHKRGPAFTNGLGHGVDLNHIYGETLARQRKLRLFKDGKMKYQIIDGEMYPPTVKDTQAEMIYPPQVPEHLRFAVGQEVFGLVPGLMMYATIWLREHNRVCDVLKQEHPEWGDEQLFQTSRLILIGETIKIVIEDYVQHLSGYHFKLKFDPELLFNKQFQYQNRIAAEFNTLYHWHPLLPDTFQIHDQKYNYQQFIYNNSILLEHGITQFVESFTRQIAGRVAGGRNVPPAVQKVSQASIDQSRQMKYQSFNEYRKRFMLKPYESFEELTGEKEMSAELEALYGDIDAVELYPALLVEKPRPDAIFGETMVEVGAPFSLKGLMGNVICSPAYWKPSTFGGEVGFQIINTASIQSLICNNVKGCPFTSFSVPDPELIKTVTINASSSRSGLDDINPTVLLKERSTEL
Procedure: as §1

T2 sequence (P23219 24-599): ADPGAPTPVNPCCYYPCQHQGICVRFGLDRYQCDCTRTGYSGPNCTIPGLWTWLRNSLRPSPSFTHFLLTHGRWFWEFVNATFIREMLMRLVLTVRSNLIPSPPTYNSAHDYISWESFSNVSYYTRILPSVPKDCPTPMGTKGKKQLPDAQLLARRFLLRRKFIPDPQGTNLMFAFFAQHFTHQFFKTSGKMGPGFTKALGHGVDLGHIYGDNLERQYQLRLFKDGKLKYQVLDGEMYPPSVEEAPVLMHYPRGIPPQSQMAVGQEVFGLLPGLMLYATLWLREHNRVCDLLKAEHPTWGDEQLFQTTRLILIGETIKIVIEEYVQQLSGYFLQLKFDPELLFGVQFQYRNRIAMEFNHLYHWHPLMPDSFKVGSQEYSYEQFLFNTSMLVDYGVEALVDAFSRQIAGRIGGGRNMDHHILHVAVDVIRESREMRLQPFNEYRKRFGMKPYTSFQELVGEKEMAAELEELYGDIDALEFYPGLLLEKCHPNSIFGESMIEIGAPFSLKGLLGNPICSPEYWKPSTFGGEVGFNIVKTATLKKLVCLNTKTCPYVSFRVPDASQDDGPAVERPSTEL

Q: Which results are given for `OC1(Cc2ccccc2)c2ccccc2Sc2ccc(C(F)(F)F)cc21` (stereo not drawn) [Compound 2, 9-benzyl-2-(trifluoromethyl)-9H-thioxanthen-9-ol]?
A: % inhibition of DPPH radical (radical scavenging) ([1]; 1 µg/mL): 36.3 ± 2.4%; % inhibition of DPPH radical (radical scavenging) ([1]; 2 µg/mL): 37.3 ± 3.9%; % inhibition of DPPH radical (radical scavenging) ([1]; 3 µg/mL): 39.3 ± 4.2%; % inhibition of DPPH radical (radical scavenging) ([1]; 5 µg/mL): 39.5 ± 3.4%; % inhibition of DPPH radical (radical scavenging) ([1]; 7 µg/mL): 39.7 ± 3.6%; % inhibition of DPPH radical (radical scavenging) ([1]; 10 µg/mL): 40.1 ± 4.9%; % inhibition of DPPH radical (radical scavenging) ([1]; 20 µg/mL): 40.7 ± 2.5%; % inhibition of DPPH radical (radical scavenging) ([1]; 30 µg/mL): 40.7 ± 3.8%; % inhibition of DPPH radical (radical scavenging) ([1]; 50 µg/mL): 41.6 ± 5.1%; % inhibition of DPPH radical (radical scavenging) ([1]; 80 µg/mL): 42.2 ± 3.9%; IC50 [2]: 60200 ± 800 nM; IC50 [3]: 14 ± 0.64 nM; IC50 [4]: 74.1 ± 0.48 nM; COX-2 Selectivity [4]: 0.2

Q: Which “% inhibition of DPPH radical (radical scavenging)” value (from here on “% inhibition of DPPH radical”) ([1]; 1 µg/mL) does the source give for `OC1(c2ccccc2)c2ccccc2Sc2ccc(C(F)(F)F)cc21` (stereo not drawn) [Compound 1, 9-phenyl-2-(trifluoromethyl)-9H-thioxanthen-9-ol] here?
A: The value was 7.1 ± 1.2%.

Q: What about the “% inhibition of DPPH radical” value ([1]; 2 µg/mL) of the same compound?
A: The value was 7.6 ± 2.3%.

Q: And the “% inhibition of DPPH radical” value ([1]; 3 µg/mL)?
A: The value was 8.2 ± 1.5%.

Q: And the “% inhibition of DPPH radical” value ([1]; 5 µg/mL)?
A: Its value is 8.6 ± 3.1%.

Q: And the “% inhibition of DPPH radical” value ([1]; 7 µg/mL)?
A: The value was 8.9 ± 2.3%.

Q: And the “% inhibition of DPPH radical” value ([1]; 10 µg/mL)?
A: Its value is 9.3 ± 1.6%.

Q: And the “% inhibition of DPPH radical” value ([1]; 20 µg/mL)?
A: The value was 9.9 ± 2.5%.

Q: What about the “% inhibition of DPPH radical” value ([1]; 30 µg/mL) of the same compound?
A: Its value is 12.6 ± 3.2%.

Q: What about the “% inhibition of DPPH radical” value ([1]; 50 µg/mL) of the same compound?
A: Its value is 12.9 ± 2.6%.

Q: And the “% inhibition of DPPH radical” value ([1]; 80 µg/mL)?
A: Its value is 16.3 ± 4.3%.

Q: What about the IC50 [2] of the same compound?
A: Its IC50 is 283000 nM.

Q: And the IC50 [3]?
A: Its IC50 is 40.2 ± 0.41 nM.

Q: And the IC50 [4]?
A: Its IC50 is 27.1 ± 0.6 nM.

Q: And the “COX-2 Selectivity” value [4]?
A: Its value is 1.5.

Q: For “S-(9-benzyl-2-(trifluoromethyl)-9H-thioxanthen-9-yl)-L-cysteine [Compound 3]”, which “% inhibition of DPPH radical” value ([1]; 1 µg/mL) is on record?
A: The value was 31.3 ± 2.3%.

Q: What about the “% inhibition of DPPH radical” value ([1]; 2 µg/mL) of the same compound?
A: Its value is 36.4 ± 3.5%.

Q: What about the “% inhibition of DPPH radical” value ([1]; 3 µg/mL) of the same compound?
A: Its value is 39.9 ± 3.6%.

Q: And the “% inhibition of DPPH radical” value ([1]; 5 µg/mL)?
A: Its value is 39.9 ± 4.1%.

Q: What about the “% inhibition of DPPH radical” value ([1]; 7 µg/mL) of the same compound?
A: Its value is 40.1 ± 3.8%.

Q: And the “% inhibition of DPPH radical” value ([1]; 10 µg/mL)?
A: Its value is 40.2 ± 5.1%.

Q: And the “% inhibition of DPPH radical” value ([1]; 20 µg/mL)?
A: Its value is 40.4 ± 5.2%.

Q: And the “% inhibition of DPPH radical” value ([1]; 30 µg/mL)?
A: Its value is 41.9 ± 4.9%.

Q: What about the “% inhibition of DPPH radical” value ([1]; 50 µg/mL) of the same compound?
A: The value was 42.9 ± 3.2%.

Q: What about the “% inhibition of DPPH radical” value ([1]; 80 µg/mL) of the same compound?
A: Its value is 46.6 ± 2.4%.

Q: What about the “IC50 of the α-Amylase inhibition activity” value [2] of the same compound?
A: Its value is “no inhibitory effect”.

Q: And the IC50 [3]?
A: The IC50 was 32.5 ± 0.53 nM.

Q: And the IC50 [4]?
A: The IC50 was 25.9 ± 0.45 nM.

Q: And the “COX-2 Selectivity” value [4]?
A: The value was 1.3.
